# Reference: patent US20180008587A1, “THIOHYDANTOIN ANDROGEN RECEPTOR ANTAGONISTS FOR THE TREATMENT OF CANCER” (Jaressen Pharmaceutica NV, priority 2016, published 2018)
# Experiments:
# [1] = biological target: T1, AR T877A (Homo sapiens, UniProt P10275, T878A); assay: Luciferase transcriptional reporter assay, mutant AR, HepG2, antagonist mode; format: cell-based; conditions: HepG2, 90 pM R1881, 48 hours; * denotes incomplete inhibition (otherwise 100%); read-out: Antagonism; IC50, AR construct T877A
# T1 construct: expressed in transfected cells; host or cells: HepG2
# T1 sequence (P10275 1-920 T878A): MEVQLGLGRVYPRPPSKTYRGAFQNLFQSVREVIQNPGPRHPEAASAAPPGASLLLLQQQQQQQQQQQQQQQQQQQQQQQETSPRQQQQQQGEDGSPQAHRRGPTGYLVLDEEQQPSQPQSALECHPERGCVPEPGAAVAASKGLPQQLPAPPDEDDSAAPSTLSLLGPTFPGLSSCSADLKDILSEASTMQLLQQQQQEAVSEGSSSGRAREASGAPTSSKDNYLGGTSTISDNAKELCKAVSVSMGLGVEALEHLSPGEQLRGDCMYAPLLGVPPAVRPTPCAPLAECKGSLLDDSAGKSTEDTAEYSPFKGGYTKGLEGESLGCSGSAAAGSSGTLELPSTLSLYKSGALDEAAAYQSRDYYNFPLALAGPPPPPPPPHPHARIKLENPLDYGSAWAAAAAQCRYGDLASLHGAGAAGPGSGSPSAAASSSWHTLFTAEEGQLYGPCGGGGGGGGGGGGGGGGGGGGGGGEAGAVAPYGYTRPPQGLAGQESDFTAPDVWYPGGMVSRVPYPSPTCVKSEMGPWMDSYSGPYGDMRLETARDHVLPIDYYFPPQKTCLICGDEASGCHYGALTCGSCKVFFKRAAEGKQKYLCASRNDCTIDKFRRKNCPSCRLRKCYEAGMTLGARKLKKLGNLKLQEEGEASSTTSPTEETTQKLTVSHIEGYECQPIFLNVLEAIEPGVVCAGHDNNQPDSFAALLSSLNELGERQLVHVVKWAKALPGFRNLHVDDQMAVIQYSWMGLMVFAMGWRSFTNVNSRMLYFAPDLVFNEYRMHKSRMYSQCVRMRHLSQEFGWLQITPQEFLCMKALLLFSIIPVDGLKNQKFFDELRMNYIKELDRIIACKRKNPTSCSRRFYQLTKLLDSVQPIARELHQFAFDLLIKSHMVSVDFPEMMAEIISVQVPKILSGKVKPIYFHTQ
# Method: HepG2 cells were maintained in EMEM supplemented with 10% FBS. One day before transfection, the media was changed to EMEM with 10% CSS. T-150 flasks were transiently transfected using 120 μL Lipofectamine 2000 (Life Technologies), 30 μg mutant cDNA (expression vector)—mutant cDNA tested were L701H, T877A, W741C and H874Y—and 40 μg 4×ARE-Luciferase (reporter vector) in OptiMEM and the flasks were incubated overnight. Cells were then trypsinized, counted and resuspended at 500,000 cells/mL. For agonist mode, the compounds of Formula (I) are serially diluted and 50 μL of the compound added per well. 50 μL of the cells are added to each well and incubated for 48 hours. For antagonist mode, a final concentration of 90 pM R1881 was added to the diluted compounds and incubated for 48 hours. The plates were then assayed using SteadyGlo and read on the Envision. Percent Stimulation and Inhibition is determined and analyzed using GraphPad Prism.
# All values are calculated relative to the activity of R1881 induced androgen receptor activity (n≧3).
# [2] = test system: androgen dependent signaling; assay: Hershberger assay; format: in vivo, rat; conditions: castrated rats, mean ± SD (n=6)
# Method: The effect of AR antagonists on androgen dependent signaling in vivo was assessed using the Hershberger assay. In this assay, peripubertal castrated male Sprague-Dawley rats were administered AR antagonists described herein in the presence of testosterone (0.4 mg/kg testosterone propionate) and the weights of androgen dependent organs measured. Dosing was continued for 10 days and measurements taken 24 h after the last dose. The extent of antagonism of AR and consequent inhibition of organ growth was evaluated by comparison to the castration control. Compounds of Formula (I) were dosed orally QD and an endpoint assessment made by change in weight of 5 androgen sensitive organs (ASO): Paired Cowper's Glands (CG), Seminal Vesicles with Fluids and Coagulating Glands (SVCG), Glans Penis (GP), Ventral Prostate (VP) and Levator Ani-Bulbocavernosus Complex (LABC)). According to assay guidelines, statistically significant suppression of ASO is required in 2 of 5 organs for a compound to be classified as an anti-androgen (analysis was performed by t-test/Mann-Whitney).
# Compounds defined herein were administered at the indicated dose (mg/kg) and flutamide (FT), positive control, at 3 mg/kg. All compounds were co-administered with testosterone propionate (TP, 0.4 mg/kg) which was also administered alone, untreated control, (castrated only rats served as the control for complete androgen blockade). A statistically significant change in ASO achieved in at least 2 of 5 organs was indicative of an active compound.
# [3] = 30 mg/kg orally QD 10 days with testosterone propionate 0.4 mg/kg
# [4] = 3 mg/kg orally QD 10 days with testosterone propionate 0.4 mg/kg
# [5] = 10 mg/kg orally QD 10 days with testosterone propionate 0.4 mg/kg
IC50 [1] [µM],Structure (SMILES),"ASO Organ Growth (% of TP control) SVCG [2, 3]","ASO Organ Growth (% of TP control) VP [2, 3]","ASO Organ Growth (% of TP control) SVCG [2, 4]","ASO Organ Growth (% of TP control) VP [2, 4]","ASO Organ Growth (% of TP control) SVCG [2, 5]","ASO Organ Growth (% of TP control) VP [2, 5]"
3.59,"N#Cc1ncc(N2C(=O)C3(CCC3)N(c3ccc(OC4CCNCC4)cc3)C2=S)cc1C(F)(F)F [Cpd 35, 5-[5-oxo-8-[4-(4-piperidyloxy)phenyl]-7-thioxo-6,8-diazaspiro[3.4]octan-6-yl]-3-(trifluoromethyl)pyridine-2-carbonitrile]",28.1 ± 19.5 % of TP control,25.7 ± 22.9 % of TP control,–,–,–,–
7.51,"N#Cc1ncc(N2C(=O)C3(CCC3)N(c3ccc(C(=O)NCCCO)c(F)c3)C2=S)cc1C(F)(F)F [Cpd 40, 4-[6-[6-cyano-5-(trifluoromethyl)-3-pyridyl]-5-oxo-7-thioxo-6,8-diazaspiro[3.4]octan-8-yl]-2-fluoro-N-(3-hydroxypropyl)benzamide]",–,–,–,–,–,–
–,"CN1CCC(Oc2ccc(N3C(=S)N(c4cnc(C#N)c(C(F)(F)F)c4)C(=O)C34CCC4)cc2)CC1 [Cpd 85, 5-[8-[4-[(1-methyl-4-piperidyl)oxy]phenyl]-5-oxo-7-thioxo-6,8-diazaspiro[3.4]octan-6-yl]-3-(trifluoromethyl)pyridine-2-carbonitrile]",8.5 ± 14.7 % of TP control,13.2 ± 19.2 % of TP control,67.3 ± 20.2 % of TP control,72.3 ± 18.5 % of TP control,31.6 ± 37.7 % of TP control,37.4 ± 25.6 % of TP control
